Legend:
diol dehydrase [1] = biological target: T1, diol dehydrase (Klebsiella oxytoca, UniProt Q59470+Q59471+Q59472); assay: Assay of coenzyme activity (kcat) with diol dehydrase; assay type: biochemical, Klebsiella pneumoniae ATCC 8724; conditions: for coenzyme activity (in words): diol dehydrase; for Kcat (coenzyme activity): diol dehydrase, 1,2-propanediol substrate, 37° C., pH 8.0; method 1) or 2); for Kcat, activity relative to the vitamin B12 coenzyme (adenosylcobalamin): relative to adenosylcobalamin = 100
T1 construct: (alpha beta gamma)2 hexamer
T1 sequence (Q59470 1-554): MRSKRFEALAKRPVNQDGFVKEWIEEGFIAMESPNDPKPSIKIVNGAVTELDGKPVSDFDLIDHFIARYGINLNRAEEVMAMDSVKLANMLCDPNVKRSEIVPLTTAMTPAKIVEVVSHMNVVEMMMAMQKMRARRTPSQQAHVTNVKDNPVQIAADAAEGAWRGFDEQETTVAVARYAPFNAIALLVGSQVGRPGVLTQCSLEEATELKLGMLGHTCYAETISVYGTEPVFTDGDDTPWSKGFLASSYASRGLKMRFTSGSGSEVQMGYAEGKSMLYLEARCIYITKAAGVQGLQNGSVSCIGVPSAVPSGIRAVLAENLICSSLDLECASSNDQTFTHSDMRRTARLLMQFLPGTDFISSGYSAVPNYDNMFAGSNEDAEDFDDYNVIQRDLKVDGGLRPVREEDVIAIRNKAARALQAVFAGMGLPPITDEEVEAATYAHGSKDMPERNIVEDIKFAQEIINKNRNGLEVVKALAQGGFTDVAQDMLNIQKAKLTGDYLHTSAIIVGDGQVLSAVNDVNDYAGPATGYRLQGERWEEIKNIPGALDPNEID
T1 sequence (Q59471 1-224): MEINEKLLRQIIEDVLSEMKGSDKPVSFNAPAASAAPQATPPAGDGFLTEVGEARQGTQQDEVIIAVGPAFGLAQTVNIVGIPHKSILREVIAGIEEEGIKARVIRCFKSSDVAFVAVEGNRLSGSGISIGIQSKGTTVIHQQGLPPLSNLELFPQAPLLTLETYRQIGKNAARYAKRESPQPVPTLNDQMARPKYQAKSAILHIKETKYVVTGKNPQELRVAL
T1 sequence (Q59472 1-173): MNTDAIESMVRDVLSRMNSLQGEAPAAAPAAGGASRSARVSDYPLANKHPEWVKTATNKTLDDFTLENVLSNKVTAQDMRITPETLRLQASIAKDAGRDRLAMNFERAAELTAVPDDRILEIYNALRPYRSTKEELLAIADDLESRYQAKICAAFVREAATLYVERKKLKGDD
Procedure: The coenzyme activities of vitamin B12 derivatives prepared in Examples 1 to 10 were assayed according to the two methods shown below.
1) Assay of coenzyme activity by using 3-methyl-2-benzothiazolinonehydrazone
The assay was carried out according to the method of Toraya et al. (J. Biol. Chem., vol. 252, p. 963-970, 1977).
(§1) As the enzyme, diol dehydrase was employed. […] Diol dehydrase was highly purified from Klebsiella pneumoniae ATCC 8724 according to the method of Poznanskaya (Arch. Biochem. Biophys., vol. 194, p. 379-386, 1979) and adjusted to a solution of 0.3 Unit/ml with 0.05 M potassium phosphate buffer (pH 8.0). As the substrate of this enzyme, a 1 M aqueous 1,2-propanediol solution was employed.
(§2) In an ice-water bath, 0.1 ml of the substrate solution, 0.1 ml of 0.5 M aqueous potassium chloride solution, 0.1 ml of diol dehydrase solution, and 0.6 ml of 0.05 M potassium phosphate buffer (pH 8.0) were mixed, and to the mixture were added, in the dark, 0.1 ml of 0.2 mM vitamin B12 coenzyme (adenosylcobalamin), vitamin B12 (cyanocobalamin) or each vitamin B12 derivative prepared in Examples 1 to 10. After the mixture was incubated in the dark at 37° C. for 10 minutes, 1 ml of 0.1M potassium citrate buffer (pH 3.6) was added to stop the enzyme reaction, and then 0.5 ml of 0.1% aqueous 3-methyl-2-benzothianolinonehydrazone was added, followed by a continuation of the incubation at 37° C. for 15 minutes. To the mixture was added 1 ml of water, and the absorbance at 305 nm was measured by a Shimazu Double-beam Spectrophotometer Model UV-140-02 Model and the coenzyme activity (kcat) was calculated.
2) Assay of coenzyme activity using alcohol dehydrogenase and reduced nicotinamide adenine dinucleotide
The assay was carried out according to the method of Toraya et al. (Biochemistry, vol. 18, p. 417-426, 1979).
The diol dehydrase employed was diluted with 0.05 M potassium phosphate buffer (pH 8.0) to 0.15 Unit/ml, and 1M aqueous propanediol was used as the substrate solution. By using a 0.05 M potassium phosphate buffer (pH 8.0), 0.5 mg/ml of alcohol dehydrogenase and a 2 mM reduced nicotinamide adenine dinucleotide were prepared. To a mixture of 0.1 ml of the substrate solution, 0.1 ml of the alcohol dehydrogenase solution, 0.1 ml of the reduced nicotinamide adenine dinucleotide solution, and 0.5 ml of the 0.05 M potassium phosphate buffer (pH 8.0) was added 0.1 ml of the diol dehydrase solution. After the mixture was incubated at 37° C. for 5 minutes, there were added, in the dark, 0.1 ml of 0.2 mM vitamin B12 coenzyme (adenosylcobalamin), vitamin B12 (cyanocobalamin) or each vitamin B12 derivative prepared in Examples 1 to 10, and the coenzyme activity (kcat) was calculated by continuously monitoring the decrease in absorbance at 340 nm, by a Union Spectrophotometer SM-401.
The coenzyme activity is higher when the kcat is larger. The activity relative to the vitamin B12 coenzyme (adenosylcobalamin) is also shown in % in Table 1.

diol dehydrase [2] = biological target: T1, diol dehydrase; assay: Inhibition constant (Ki) of vitamin B12 derivative against vitamin B12 coenzyme, Lineweaver-Burk plot; assay type: biochemical; conditions: against varied adenosylcobalamin
Procedure: as §1, §2
Namely, in the method 1) in Example 11, by adding adequately varied concentration of the vitamin B12 coenzyme (adenosylcobalamin) to a fixed concentration of each vitamin B12 derivative, the enzyme activity was respectively assayed and the inhibition constant (Ki) was determined by the Lineweaver-Burk plot. The inhibitory activity is stronger when the Ki is smaller.

diol dehydrase [3] = biological target: T1, diol dehydrase; assay: Michaelis constant (Km) of vitamin B12 derivative, Lineweaver-Burk plot; assay type: biochemical, Klebsiella pneumoniae ATCC 8724
Procedure: as §1, §2
Namely, in the method 1) in Example 11, the respective enzyme activities were assayed by suitably varying the concentration of the vitamin B12 derivative, and Michaelis constant (km) was determined by the Lineweaver Burk plot. The affinity (binding ability) for the enzyme is higher when the Km is smaller.

[4] = test system: mouse leukemia L1210 cells; assay: Viability of cultured L1210 cells on day 9 by Trypan blue staining; assay type: cell-based; conditions: day 9, MTX 200 nM only; 12960 min
Procedure: The mouse leukemia L1210 cells employed for this experiment were grown and maintained intraperitoneally in DBA mice, taken out together with ascites and aseptically cultured as adapted for RPMI-1640 medium for animal cell culture supplemented with fetal bovine serum (5 v/v %) and ethanolamine (1.2 mg/liter), but devoid of vitamin B12 (cyanocobalamin). Also, 100,000 units of penicillin and 100 mg of streptomycin were added as the antimicrobial agent, per liter of this medium. The L1210 cells grown and adapted in vitro were further adapted to the above-mentioned medium containing 7.0 g/liter of bovine serum albumin in place of the fetal bovine serum, following the method of Fujii et al. (J. Biol. Chem., vol. 256, p. 10329-10334, 1981), and then used for experiment.
To examine the L1210 growth inhibitory activities of the vitamin B12 derivatives synthesized in Examples 2 and 5, first L1210 cells adapted to albumin were inoculated at a density of 5×10^4 cells/ml into the same medium containing folic acid at 10 μM concentration, and a preculture was carried out under a humidified atmosphere of CO2 /air (5%/95%) at 37° C. for 3 days. The cells grown were centrifuged, then washed twice with the same medium containing no folic acid, to prepare an inoculum cell suspension of about 5×10^6 cells/mi. […]

Compound	coenzyme activity (in words) (diol dehydrase [1])	Ki (diol dehydrase [2]) [µM]	Km (diol dehydrase [3]) [µM]	Kcat (coenzyme activity) (diol dehydrase [1]) [s⁻¹]	Kcat, activity relative to the vitamin B12 coenzyme (adenosylcobalamin) (diol dehydrase [1]) [%]	cells found dead (Trypan blue) [4] [%]
2-(5,6-dimethylbenzimidazolyl)ethyladenosylcobinamide phosphoric acid [Example 6]	no coenzyme activity	52	–	–	–	–
3-(5,6-dimethylbenzimidazolyl)propyladenosylcobinamide phosphoric acid [Example 7]	–	–	0.82	199	59	–
3-imidazolylpropyladenosylcobinamide phosphoric acid [Example 10]	–	1	1.1	3	0.9	–
4-(5,6-dimethylbenzimidazolyl)butyladenosylcobinamide phosphoric acid [Example 8]	–	–	11.2	167	50	–
6-(5,6-dimethylbenzimidazolyl)hexyladenosylcobinamide phosphoric acid [Example 9]	no coenzyme activity	38	–	–	–	–
CN(Cc1cnc2nc(N)nc(N)c2n1)c1ccc(C(=O)N[C@@H](CCC(=O)O)C(=O)O)cc1 [MTX, methotrexate]	–	–	–	–	–	20
C/C1=C2/[N-][C@H]([C@H](CC(N)=O)[C@@]2(C)CCC(=O)NC[C@@H](C)OP(=O)([O-])O[C@H]2[C@@H](O)[C@@H](n3cnc4cc(C)c(C)cc43)O[C@@H]2CO)[C@]2(C)N=C(/C(C)=C3N=C(/C=C4N=C1[C@@H](CCC(N)=O)C\4(C)C)[C@@H](CCC(N)=O)[C@]\3(C)CC(N)=O)[C@@H](CCC(N)=O)[C@]2(C)CC(N)=O.[CH2-][C@H]1O[C@@H](n2cnc3c(N)ncnc32)[C@H](O)[C@@H]1O.[Co] [Vitamin B12 coenzyme, adenosylcobalamin, reference compound]	–	–	0.8	337	100	–
